From PMC11259170, “Small-molecule probe for IBD risk variant GPR65 I231L alters cytokine signaling networks through positive allosteric modulation” (Science Advances, 2024) come the findings set out here.

Like-named read-outs stand apart in the source and are kept apart here. Some results are limits rather than exact numbers.

One series in a line: Lipophilicity (logD). The format is physicochemical. Conditions: pH 7.4; pH7.4; read-out: LogD (pH7.4).
A further series concerns human PBMCs. Put plainly: cAMP detection in human PBMCs. It counts as cell-based. The conditions noted are these: 0 to 50 μM, 30 min, pH 7.2. Here is the method:
Human blood samples were collected from healthy donors at the Blood Donor Center at Massachusetts General Hospital in compliance with all relevant ethical regulations and according to protocol 2018P001504 approved by the Mass General Brigham Institutional Review Board. Donors provided informed written consent. Human PBMCs were isolated by density gradient separation using Ficoll-Paque PLUS (VWR- GE Life Sciences, catalog no. 17144002), as previously described ([54]). Isolated PBMCs were incubated overnight in DMEM (10% FBS, 0.2% sodium bicarbonate, 1X Glutamax) at 37°C, 5% CO2. Human monocytes were isolated from an unpurified Buffy Coat using RosetteSep human monocyte enrichment cocktail (StemCell Technologies, 15068) and frozen same day in FBS with 10% DMSO.
cAMP was measured in cells using the Lance Ultra cAMP Kit. Compound dose curves were prepared in an assay buffer, which was made according to the manufacturer’s guidelines using DMEM instead of HBSS. Assay buffer was adjusted to desired pH using 1 M HCl or NaOH. PBMCs were collected, centrifuged, and resuspended in assay buffer. Dose curves and cells were added to a white opaque OptiPlate (PerkinElmer, 6007290) at a density of 20,000 cells per well. […] Eu-cAMP tracer and FRET emissions were read using a PerkinElmer EnVision Multimode plate reader (ENVISION21040010). […]

Series [1] has as its target T1, hGPR65 (Homo sapiens, UniProt Q8IYL9).
T1 construct: expressed in transfected cells; host or cells: HeLa (ATCC CCL-2), lentiviral transduction, pLX317
Put plainly: cAMP detection in HeLa expression cell line, hGPR65. The format is cell-based. The conditions noted are these: for Emax: HeLa, relative to 100uM forskolin (100%) and DMSO (0%), read-out: hGPR Max Activity %. The method, boiled down: (§1)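 HeLa cells stably expressing C-terminally V5-tagged receptor (lentiviral transduction, puromycin-selected) were stimulated with compound from a 10 mM DMSO stock for 30 min at RT in stimulation buffer adjusted to pH 7.2, 1500 cells per well. cAMP was read by LANCE Ultra TR-FRET (665/620 nm) after 1 h detection.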

For series [2], the target named is T1, hGPR65. Put plainly: cAMP detection (Lance Ultra), GPR65 KO HeLa reconstituted with hGPR65; 21K screen dose confirmation. The format is cell-based. The conditions noted are these: primary hit validation. Here is the method:
The Lance Ultra cAMP Kit (PerkinElmer, TRF0264) was used for cAMP detection, and included the following reagents: ULight anti-cAMP antibody, Eu-cAMP tracer, 7.5% BSA Stabilizer solution, and cAMP detection buffer. Stimulation buffer was prepared as described by the kit manufacturer as follows: Hanks buffered saline solution (HBSS, Life Technologies, 14025-126) containing 0.5 mM IBMX (3-isobutyl-1-methylxanthine, Sigma-Aldrich, I7018) and buffered with 1 M Hepes (15630-080). Stimulation buffer was then adjusted to pH 7.1 using 12 N HCl. HeLa cells were lifted using Versene and then suspended at 2.5 × 10^5 cells/ml in stimulation buffer. Cells were then plated at 20 μl per well (5000 cells per well) in white, opaque OptiPlate 384-well MicroPlates (PerkinElmer, 6007299) using a Thermo Fisher Scientific Combi liquid dispenser. Compounds, stored at 5 mM in DMSO for the primary screen, or in a range of concentrations from 39 μM to 20 mM for dose curves, were transferred by the CyBio CyBi-Well Vario pin transfer tool with 100-nl pins (V&P FP1NS50H, 50-nl slot, 0.457-mm diameter, hydrophobic coated), into each assay well, 100 nl per well for a final assay concentration of 25 μM for the primary screen, or 195 nM to 100 μM for dose curves. Assay plates were then incubated at RT for 30 min. Eu-cAMP tracer was diluted 1:33 into detection buffer and the final solution then distributed into assay wells, 5 μl per well. ULight anti-cAMP antibody was diluted 1:100 into detection buffer, then distributed into assay wells, also 5 μl per well. Assay plates were then incubated at RT in the dark for 1 hour. Eu-cAMP tracer and Förster resonance energy transfer (FRET) emissions were then read using a PerkinElmer EnVision Multimode plate reader (ENVISION21040010), exciting each well at 320 nm [UV2 (TRF) 320 filter] and reading emissions at 615 nm (Europium 615 filter) and 665 nm (APC665 filter). Data analysis was performed using Genedata Screener and GraphPad Prism.
HeLa KO cell lines were generated using the px330 plasmid CRISPR system as previously described ([18]). Briefly, HeLa cells were transfected with a Cas9 vector containing a gene-specific single-guide RNA to target the GPR65 coding exon. Forty-eight to 72 hours after transfection, single clones were obtained through limiting dilution and then sequenced to validate the KO. Reconstituted cell lines were produced by transducing KO cells with empty lentivirus or lentivirus containing hGPR65 or mGPR65. After 48 hours, cells were treated with puromycin (3 μg/ml; InvivoGen, ant-pr-1) and resistant cells were used in experiments.

The target of a further series is T2, mGPR65 (Mus musculus, UniProt Q61038).
T2 construct: expressed in transfected cells; host or cells: HeLa (ATCC CCL-2), lentiviral transduction, pLX317
Put plainly: cAMP detection in HeLa expression cell line, mGPR65. The format is cell-based. The conditions noted are these: for Emax: HeLa, relative to 100uM forskolin (100%) and DMSO (0%), read-out: mGPR Max Activity %. The gist of the method:
as §1

Series [3] relates to GPR65 KO HeLa cells + pLX empty vector. Description: cAMP detection, GPR65 KO HeLa + empty pLX vector (null control). The format is cell-based, human. The method, boiled down:
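CRISPR GPR65-KO HeLa cells, lentivirally reconstituted with hGPR65, mGPR65 or empty vector, were treated at 5000 cells/well in HBSS/Hepes with 0.5 mM IBMX at pH 7.1. Compounds were tested at 25 μM (primary screen) or 195 nM–100 μM (dose curves) for 30 min at RT. cAMP was read by Lance Ultra TR-FRET (665/615 nm) after 1 hour.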

Series [4] can be described thus: Solubility in phosphate buffer. The format is physicochemical. Conditions: read-out: Solubility.
Series [5] concerns the target T1, hGPR65. Description: cAMP detection (Lance Ultra), GPR65 KO HeLa reconstituted with hGPR65; 21K screen dose confirmation. It counts as cell-based.
In the next series the target is T3, human GPR4 (hGPR4) (Homo sapiens, UniProt P46093).
T3 construct: expressed in transfected cells; host or cells: HeLa (ATCC CCL-2), lentiviral transduction, pLX317
Put plainly: cAMP detection in HeLa expression cell line, hGPR4. The format is cell-based. Conditions: highest concentration tested. Here is the method: HeLa stable expression cell lines were produced by lentiviral transduction. Briefly, lentiviral plasmids for each GPCR with a C-terminal V5 Tag ([…]) were made in a pLX317 backbone using competent Escherichia coli (New England Biolabs, C3050H). Lenti-X 293 T (Takara, 632810) cells were transfected with the lentiviral plasmids to produce virus. Low-passage HeLa cells (American Type Culture Collection, CCL-2) were then transduced with lentivirus. After 48 hours, HeLa cells were cultured under selection with puromycin (3 μg/ml) and allowed to recover and expand before storing stocks in liquid nitrogen.
cAMP was measured in cells using the Lance Ultra cAMP Kit. HeLa cells were cultured under puromycin (3 μg/ml) selection. One day before the experiment, cells were seeded in T75 flasks and allowed to adhere overnight. On the day of the experiment, cells were washed twice with Dulbecco’s PBS and lifted using prewarmed 1× versene solution (Gibco, 15040066). Cells were counted in HBSS (Gibco, 14025092) and then resuspended in stimulation buffer prepared according to the manufacturer’s instructions and adjusted to pH 7.2 using 1 M sodium hydroxide. Cells were added to the plate at a density of 1500 cells per well in white opaque 384-well assay ready microplates containing 100 nl of 10 mM compound in DMSO. Cells were stimulated for 30 min at RT, then lysed and incubated with detection reagents for 1 hour in the dark at RT. Plates were read on BMG Labtech PHERAstar FSX (excitation, 337 nm; emission, 620 and 665 nm). Data analysis was performed using GraphPad Prism.

Series [6] deals with GFP-expressing HeLa cells. Put plainly: cAMP detection in HeLa expression cell line, GFP control. It counts as cell-based, human. The conditions noted are these: Homo sapiens, HeLa, 2nd GFP column pair, NA = no activity. The gist of the method:
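HeLa cells stably expressing C-terminally V5-tagged receptor or GFP (lentiviral, puromycin 3 μg/ml) stimulated at 1500 cells per well for 30 min at RT with compound (10 mM DMSO stock) in stimulation buffer at pH 7.2. cAMP detected by Lance Ultra TR-FRET after lysis and 1 h detection, excitation 337 nm, emission 620/665 nm.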

Series [7] is described as follows: Solubility remark in the Comments column of the SAR table. It counts as physicochemical. The text has this:
Supplement sciadv.adn2339_data_s1_to_s4.zip/sciadv.adn2339_data_s2.xlsx, sheet "SAR cAMP Assay"

[8] abbreviates: 1st hGPR column pair, NA = no activity.
Where [9] appears, read: 2nd hGPR column pair, NA = no activity.
The mark [10] stands for this setting: 2nd mGPR column pair, NA = no activity.

T2 sequence (Q61038 whole entry): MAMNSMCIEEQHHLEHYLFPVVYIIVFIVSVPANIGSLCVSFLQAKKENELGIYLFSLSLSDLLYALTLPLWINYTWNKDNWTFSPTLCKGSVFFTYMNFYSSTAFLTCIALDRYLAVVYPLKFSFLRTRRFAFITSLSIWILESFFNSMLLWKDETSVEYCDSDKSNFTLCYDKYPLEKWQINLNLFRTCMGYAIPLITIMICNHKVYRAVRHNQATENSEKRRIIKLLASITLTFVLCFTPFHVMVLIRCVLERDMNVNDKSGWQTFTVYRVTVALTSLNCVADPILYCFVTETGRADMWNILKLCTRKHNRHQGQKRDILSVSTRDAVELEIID
T1 sequence (Q8IYL9 whole entry): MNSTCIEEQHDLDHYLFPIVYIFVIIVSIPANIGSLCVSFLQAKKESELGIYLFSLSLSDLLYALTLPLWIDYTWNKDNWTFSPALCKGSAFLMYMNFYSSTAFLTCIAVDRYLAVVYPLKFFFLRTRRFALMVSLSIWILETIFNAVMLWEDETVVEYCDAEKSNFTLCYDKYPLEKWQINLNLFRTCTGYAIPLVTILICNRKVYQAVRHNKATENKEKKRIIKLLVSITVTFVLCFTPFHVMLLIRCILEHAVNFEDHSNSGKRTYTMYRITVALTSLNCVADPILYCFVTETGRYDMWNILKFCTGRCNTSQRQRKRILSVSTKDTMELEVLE
T3 sequence (P46093 whole entry): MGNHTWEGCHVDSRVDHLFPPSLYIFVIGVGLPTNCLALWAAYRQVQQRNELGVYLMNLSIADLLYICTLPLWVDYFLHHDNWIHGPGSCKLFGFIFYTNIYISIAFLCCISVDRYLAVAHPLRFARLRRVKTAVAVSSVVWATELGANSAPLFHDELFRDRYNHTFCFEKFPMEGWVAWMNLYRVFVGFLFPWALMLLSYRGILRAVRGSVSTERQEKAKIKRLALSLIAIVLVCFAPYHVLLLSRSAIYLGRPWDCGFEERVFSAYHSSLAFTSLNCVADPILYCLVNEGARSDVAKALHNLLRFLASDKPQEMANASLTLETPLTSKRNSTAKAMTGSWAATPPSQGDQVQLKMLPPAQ

Turning to `COCc1ccc(-c2cc(O)n3ncc(C(=O)Nc4ccc(C)cc4)c3n2)cc1` [BRD2813, COCc1ccc(cc1)-c1cc(O)n2ncc(C(=O)Nc3ccc(C)cc3)c2n1], in the series “Lipophilicity (logD)”, the logD is over 4.65. Moreover, in the series with human PBMCs, the “cAMP production in human PBMCs, compared” value is “outperformed BTB09089”. Besides, the Emax at hGPR65 [1] (setting [8]) is 78.8%; at hGPR65 [1] (setting [9]), 79.2%; at mGPR65 (setting [10]) it was 39.6%; at mGPR65 (NA = no activity), 35.8%. For the same molecule, the EC50 on hGPR65 [1] (hGPR EC50 (uM), NA = no activity) stood at 0.866 µM; on hGPR65 [1] (hGPR EC50 (uM), pH 7.2, 30 min), 1.2 µM; on hGPR65 [1] (hGPR EC50, NA = no activity), 0.993 µM; on hGPR65 [1] (hGPR EC50, pH 7.2, 30 min), 0.724 µM; at mGPR65 (mGPR EC50 (uM), first pair of columns, pH 7.2, 30 min), 0.942 µM; on mGPR65 (mGPR EC50 (uM), second pair of columns, pH 7.2, 30 min), 0.406 µM. In addition, the EC50 was 0.693 µM on mGPR65 (mGPR EC50 (uM), NA = no activity); over 100000 nM in series [3] (Homo sapiens, 0.5 h, HeLa GPR65 KO + pLX, pH 7.1, 30 min, normalized to DMSO and 100 μM forskolin). On hGPR65 [2], the “cAMP activity in hGPR65-expressing cells” value is on record as “dose-dependent activity”. Moreover, the “cAMP production in control cells” value in series [3] (primary hit validation) was “without inducing cAMP production”. Further, the solubility in [4] is under 1.56 µM. Further, the “pH of greatest compound effect” value on hGPR65 [5] (0-50 μM, pH curves) is “between pH 7.1 and 7.3”. Also, the “cAMP response, BRD2813 compared with BTB09089” value on hGPR65 [5] (0 to 50 μM, pH 7.2) is reported as “greater cAMP response”. Further, the “shift in the pH response curve of GPR65” value at hGPR65 [5] (increasing concentrations, 0 to 50 μM) is given as “leftward shift”. The “cAMP relative to DMSO in the hGPR4 cells” value at human GPR4 (hGPR4) is on record as “decrease in cAMP”.
In the case of `Cc1ccc(NC(=O)c2cnn3c(O)cc(-c4ccc(-c5ccccc5C(C)C)cc4)nc23)cc1` [BRD4665], the 50% effective concentration (EC50) came to 0.227 µM at hGPR65 [1] (1st hGPR column pair, NA = no activity, read-out: hGPR EC50); 0.152 µM on hGPR65 [1] (2nd hGPR column pair, NA = no activity, read-out: hGPR EC50); 0.787 µM at mGPR65 (1st mGPR column pair, NA = no activity, read-out: mGPR EC50); 0.627 µM at mGPR65 (2nd mGPR column pair, NA = no activity, read-out: mGPR EC50); 26400 nM in series [6]. The Emax at hGPR65 [1] (setting [8]) was determined as 76.3%; at hGPR65 [1] (setting [9]), 79.6%; on mGPR65 (setting [10]), 33.2%; on mGPR65 (NA = no activity), 34.9%; in series [6] (relative to 100uM forskolin (100%) and DMSO (0%), read-out: GFP Max Activity %), 12%. For the same molecule, the “Comments (solubility)” value in [7] is listed as “Poor solubility”.

By logD is commonly meant the decadic logarithm of the distribution of all forms, ionised or not, between an organic phase and buffer at a given pH. As a reminder, the EC50 is the midpoint of the concentration-response curve. The solubility is how much of the substance goes into solution per volume.
